Experimental data: PubChem BioAssay AID248 (DTP/NCI, 2004)
“And” between values parts separate entries of the source, which are not always exact repeats. Equal entries are not always repeated. Toxic doses and inconclusive results are not listed. Cut-off read from the data, not from the text of the source: active = T/C of 150% or more; inactive = T/C below 125%.

Tested on: L1210 leukemia ip in BDF1 mice, survival T/C
Test: NCI In Vivo Anticancer Drug Screen. Data for tumor model L1210 Leukemia (intraperitoneal) in B6D2F1 (BDF1) mice
Details: endpoint: mean survival time, higher = longer survival
Procedure, shortened: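 Ratio derived from survival: compound-dosed mice over vehicle-dosed mice, all bearing a transplantable tumor.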

[1] = dose: 100.0 mg/kg/injection, schedule: Q01DX001 (ip), vehicle: other
[2] = dose: 100.0 mg/kg/injection, schedule: Q04DX003 (ip), vehicle: saline with Tween-80
[3] = dose: 200.0 mg/kg/injection, schedule: Q01DX001 (ip), vehicle: other
[4] = dose: 400.0 mg/kg/injection, schedule: Q01DX001 (ip), vehicle: other
[5] = dose: 400.0 mg/kg/injection, schedule: Q04DX003 (ip), vehicle: saline with Tween-80
[6] = dose: 100.0 mg/kg/injection, schedule: Q01DX009 (ip), vehicle: saline with Tween-80
[7] = dose: 200.0 mg/kg/injection, schedule: Q01DX009 (ip), vehicle: saline with Tween-80
[8] = dose: 400.0 mg/kg/injection, schedule: Q01DX009 (ip), vehicle: saline with Tween-80
[9] = dose: 100.0 mg/kg/injection, schedule: Q04DX003 (ip), vehicle: Klucel (hydroxypropylcellulose) (HPC)
[10] = dose: 200.0 mg/kg/injection, schedule: Q04DX003 (ip), vehicle: Klucel (hydroxypropylcellulose) (HPC)
[11] = dose: 400.0 mg/kg/injection, schedule: Q04DX003 (ip), vehicle: Klucel (hydroxypropylcellulose) (HPC)
[12] = dose: 100.0 mg/kg/injection, schedule: Q01DX001 (ip), vehicle: carboxymethylcellulose (CMC)
[13] = dose: 100.0 mg/kg/injection, schedule: Q04DX003 (ip), vehicle: saline
[14] = dose: 200.0 mg/kg/injection, schedule: Q04DX003 (ip), vehicle: saline
[15] = dose: 200.0 mg/kg/injection, schedule: Q01DX001 (ip), vehicle: carboxymethylcellulose (CMC)
[16] = dose: 400.0 mg/kg/injection, schedule: Q01DX001 (ip), vehicle: carboxymethylcellulose (CMC)
[17] = dose: 100.0 mg/kg/injection, schedule: Q04DX002 (ip), vehicle: saline with Tween-80
[18] = dose: 200.0 mg/kg/injection, schedule: Q04DX002 (ip), vehicle: saline with Tween-80
[19] = dose: 400.0 mg/kg/injection, schedule: Q04DX002 (ip), vehicle: saline with Tween-80

Measured: T/C

OC1(Cc2ccccc2)CCCCC1
inactive: [1] 102 % of control | [2] 102 % of control | [3] 110 % of control | dose: 200.0 mg/kg/injection, schedule: Q04DX003 (ip), vehicle: saline with Tween-80 104 % of control | [4] 118 % of control | [5] 102 % of control

O=c1c(Br)cocc1Br
inactive: [6] 92 % of control | [7] 97 % of control | [8] 102 % of control

COc1ccc(C(C#N)=C2C=CC(=NO)C=C2)cc1
inactive: [6] 94 % of control

CCCCOCN(COCCCC)C(C)(C)C
inactive: dose: 100.0 mg/kg/injection, schedule: Q01DX001 (ip), vehicle: saline 93 % of control | dose: 200.0 mg/kg/injection, schedule: Q01DX001 (ip), vehicle: saline 98 % of control | dose: 400.0 mg/kg/injection, schedule: Q01DX001 (ip), vehicle: saline 117 % of control

CCCCCCCCCCCCCCCCS(=O)(=O)N/N=C(/c1ccc(N)cc1Cl)N1CCCCC1
inactive: [9] 86 % of control | [10] 94 % of control | [11] 91 % of control

O=C1c2ccccc2C(=O)N1c1ncc2ccccc2n1
inactive: dose: 100.0 mg/kg/injection, schedule: Q01DX001 (ip), vehicle: saline with Tween-80 101 % of control | dose: 200.0 mg/kg/injection, schedule: Q01DX001 (ip), vehicle: saline with Tween-80 92 % of control | dose: 400.0 mg/kg/injection, schedule: Q01DX001 (ip), vehicle: saline with Tween-80 95 % of control

CCOP(=O)(OCC)C(C)OC (configuration not stated)
inactive: dose: 100.0 mg/kg/injection, schedule: Q01DX009 (ip), vehicle: saline 95 % of control | dose: 200.0 mg/kg/injection, schedule: Q01DX009 (ip), vehicle: saline 93 % of control | dose: 400.0 mg/kg/injection, schedule: Q01DX009 (ip), vehicle: saline 104 % of control

O=[N+]([O-])c1cc(S(=O)(=O)F)cc(Cl)c1S
inactive: [9] 98 % of control | [10] 102 % of control

COC(=O)CCC(=O)CCC(C)C
inactive: [6] 110 % of control | [2] 103 % of control | [7] 92 % of control | [8] 101 % of control | [5] 93 % of control

Cc1nc(N(C)C)nc(C)c1C#[N+][O-]
inactive: [12] 94 % of control

Cc1c(Cl)cccc1NC(=O)c1ccccc1
inactive: dose: 100.0 mg/kg/injection, schedule: Q01DX009 (ip), vehicle: Klucel (hydroxypropylcellulose) (HPC) 93 % of control | [9] 91 % of control | dose: 200.0 mg/kg/injection, schedule: Q01DX009 (ip), vehicle: Klucel (hydroxypropylcellulose) (HPC) 96 % of control | [10] 106 % of control | dose: 400.0 mg/kg/injection, schedule: Q01DX009 (ip), vehicle: Klucel (hydroxypropylcellulose) (HPC) 100 % of control | [11] 98 % of control

COc1cc(/C=N/NC(=O)c2ccccc2)ccc1O
inactive: [9] 100 % of control | [10] 95 % of control | [11] 94 % of control

CSc1nc2c(N)ncnc2n1C1OC(CO)C(O)C1O (configuration not stated)
inactive: dose: 100.0 mg/kg/injection, schedule: Q01DX005 (ip), vehicle: saline 98 % of control | dose: 200.0 mg/kg/injection, schedule: Q01DX005 (ip), vehicle: saline 101 % of control

CN(C)C(=O)c1cccc(COc2ccc(N)cc2Cl)c1
inactive: [13] 96 % of control | [14] 106 % of control

CCC[CH2][Sn]([Br])([CH2]CCC)[CH2]CCC
inactive: dose: 3.13 mg/kg/injection, schedule: Q01DX009 (ip), vehicle: carboxymethylcellulose (CMC) 93 % of control and 103 % of control | dose: 6.25 mg/kg/injection, schedule: Q01DX009 (ip), vehicle: carboxymethylcellulose (CMC) 103 % of control (2×) and 104 % of control | dose: 6.25 mg/kg/injection, schedule: Q04DX003 (ip), vehicle: carboxymethylcellulose (CMC) 96 % of control | dose: 12.5 mg/kg/injection, schedule: Q01DX009 (ip), vehicle: carboxymethylcellulose (CMC) 93 % of control and 101 % of control and 103 % of control | dose: 12.5 mg/kg/injection, schedule: Q04DX002 (ip), vehicle: carboxymethylcellulose (CMC) 92 % of control and 103 % of control | dose: 12.5 mg/kg/injection, schedule: Q04DX003 (ip), vehicle: carboxymethylcellulose (CMC) 107 % of control | dose: 25.0 mg/kg/injection, schedule: Q04DX002 (ip), vehicle: carboxymethylcellulose (CMC) 93 % of control and 98 % of control

Cc1nc(N)[nH]c(=O)c1CCCNS(=O)(=O)c1ccc(C(=O)CBr)cc1
inactive: [12] 93 % of control | [15] 87 % of control | [16] 96 % of control

O=C(Cc1ccccc1)NCCCl
inactive: [17] 103 % of control | [18] 103 % of control | [19] 105 % of control

CC1(C(Cl)Cl)C(=O)C=Cc2ccccc21 (configuration not stated)
inactive: [17] 95 % of control | [18] 98 % of control | [19] 95 % of control

CC(=O)O[C@H]1[C@H]2O[C@]23[C@@H]2CC[C@@H]4C[C@@H](OC(=O)CCC(=O)O)CC[C@]4(C)[C@H]2CC[C@]3(C)[C@H]1c1ccc(=O)oc1
inactive: dose: 0.13 mg/kg/injection, schedule: Q01DX009 (ip), vehicle: Klucel (hydroxypropylcellulose) (HPC) 100 % of control | dose: 0.25 mg/kg/injection, schedule: Q01DX009 (ip), vehicle: Klucel (hydroxypropylcellulose) (HPC) 97 % of control | dose: 0.5 mg/kg/injection, schedule: Q01DX009 (ip), vehicle: Klucel (hydroxypropylcellulose) (HPC) 93 % of control | dose: 1.0 mg/kg/injection, schedule: Q01DX009 (ip), vehicle: Klucel (hydroxypropylcellulose) (HPC) 110 % of control

Cc1ccc(C(=O)CCCC(=O)c2ccc(C)cc2)cc1
inactive: dose: 50.0 mg/kg/injection, schedule: Q01DX001 (ip), vehicle: other 103 % of control | [1] 91 % of control | [3] 97 % of control | [4] 95 % of control

COc1ccc(OCCCO)cc1
inactive: dose: 100.0 mg/kg/injection, schedule: Q04DX002 (ip), vehicle: Klucel (hydroxypropylcellulose) (HPC) 108 % of control | dose: 200.0 mg/kg/injection, schedule: Q04DX002 (ip), vehicle: Klucel (hydroxypropylcellulose) (HPC) 105 % of control | dose: 400.0 mg/kg/injection, schedule: Q04DX002 (ip), vehicle: Klucel (hydroxypropylcellulose) (HPC) 97 % of control

CCCCCCCCCCCCCCCC(=O)N(CC)CC
inactive: [12] 104 % of control | dose: 100.0 mg/kg/injection, schedule: Q01DX009 (ip), vehicle: carboxymethylcellulose (CMC) 98 % of control and 104 % of control | dose: 100.0 mg/kg/injection, schedule: Q04DX003 (ip), vehicle: carboxymethylcellulose (CMC) 96 % of control | [15] 96 % of control | dose: 200.0 mg/kg/injection, schedule: Q01DX009 (ip), vehicle: carboxymethylcellulose (CMC) 96 % of control and 102 % of control | dose: 200.0 mg/kg/injection, schedule: Q04DX003 (ip), vehicle: carboxymethylcellulose (CMC) 92 % of control | [16] 95 % of control | dose: 400.0 mg/kg/injection, schedule: Q01DX009 (ip), vehicle: carboxymethylcellulose (CMC) 96 % of control and 89 % of control | dose: 400.0 mg/kg/injection, schedule: Q04DX003 (ip), vehicle: carboxymethylcellulose (CMC) 94 % of control

CSc1ncc(CO)c(NC(C)(C)C)n1
inactive: [13] 96 % of control | [14] 100 % of control | dose: 400.0 mg/kg/injection, schedule: Q04DX003 (ip), vehicle: saline 100 % of control
